Data as given in patent publication US5830697A, “P-glycoprotein mutant resistant to cyclosporin modulation” (The Board of Trustees of the Leland Stanford Junior …, priority 1997, dated 1998).
Read-outs that look alike come from different tables or passages of the source.

Key:
[1] = tested on: Dx5 cells; experiment: Rh-123 retention, flow cytometry; type: cell-based, human
Protocol: Flow Cytometric Analysis. The flow cytometric analysis of Rh-123 retention and P-gp expression were determined by a dual laser flow cytometer (FACS-II™; Becton Dickinson Corp., Mountain View, Calif.). Double labeling with Rh-123 and the monoclonal antibody UIC2 (Immunotech Coporation, Westbrook, Me.) was performed as previously described. Briefly, following the Rh-123 incubation step, cells were treated with UIC2 (40 μg/ml) and then reacted with either Texas Red or FITC-conjugated goat anti-mouse IgG2a secondary antibody (Caltag, So. San Francisco, Calif,). Cells were centrifuged through a calf serum cushion, resuspended in 200 μl of modified ice-cold Hank's balanced salt solution, and analyzed by flow cytometry.

[2] = tested on: MES-SA/Dx5 (Dx5) cells; experiment: Growth inhibition (MTT) assay, with or without MDR modulators; type: cell-based, human
Protocol: (§1) Cells and Tissue Culture. Details of the development and characterization of the human cell line MES-SA and its MDR variant MES-SA/Dx5 (D×5), which were derived from sarcoma elements of a uterine mixed Mullerian tumor, are described in Harker and Sikic (1985) Cancer Research 45:3810-3815. MES-SA/DxP5002 (DxP) cells were derived from Dx5.05 cells (D×5 cells selected and maintained at a DOX concentration of 0.5 μM) by step-wise selection in the presence of increasing DOX concentrations (from 40 nM up to 0.5 μM) and a constant PSC 833 concentration at 2 μM over a one-year period. Monolayer cultures of MES-SA cells and its variants were grown in McCoy's medium (Irvine Scientific, Santa Ana, Calif.) supplemented with 10% newborn calf serum (Gibco, Grand Island, N.Y.), 2 mM L-glutamine, and antibiotics(100 U/ml penicillin, 100 μg/ml streptomycin).
(§2) Growth Inhibition Assay. Approximately 8000 cells per well were seeded in 96 well plates and incubated with or without drugs for 72 hr at 37° C. in an atmosphere of 5% CO2. Growth inhibition was evaluated by the MTT colorimetric assay in triplicate or quadruplicate as previously described. The absorbance was measured with a ThermoMax microplate reader (Molecular Devices, Menlo Park, Calif.). The IC50 (drug concentration resulting in 50% inhibition of MTT dye formation, compared to controls) was determined directly from semi-logarithmic dose-response curves. The doubling times of MES-SA, D×5, and D×P were determined as previously described.
(§3) Reversal of MDR by Modulators. […] The modulation ratio was obtained by comparing IC50 s in the presence and absence of modulators.

[3] = molecular target: P-gp of DxP cells (Phe335/336 deletion) (Homo sapiens, UniProt P08183, DEL335-335)
Protocol: (§6) Photoaffinity Labeling with [^25 -I]-iodoarylazidoprazesin and [^3 H]-Azidopine. […] These preparations were incubated at 25° C. for 1 hour in the dark, followed by a 20 min exposure to a 366 nm UV source (UVP, Inc., San Gabriel, Calif.). 50 μl of loading buffer was added and proteins separated on an 8% SDS-polyacrylamide gel, dried, and analyzed by autoradiography.

[4] = tested on: MES-SA/DxP5002 (DxP) cells; experiment: Growth inhibition (MTT) assay, with or without MDR modulators
Protocol: Cells and Tissue Culture. […] Monolayer cultures of MES-SA cells and its variants were grown in McCoy's medium (Irvine Scientific, Santa Ana, Calif.) supplemented with 10% newborn calf serum (Gibco, Grand Island, N.Y.), 2 mM L-glutamine, and antibiotics(100 U/ml penicillin, 100 μg/ml streptomycin).
as §2, with “The IC50 (drug concentration resulting in 50% inhibition of MTT dye formation, compared to controls) was determined directly from semi-logarithmic dose-response curves.” left out
as §3

[5] = molecular target: P-gp of Dx5 cells (Homo sapiens, UniProt P08183)
Protocol: as §6

[6] = tested on: Dx5 cells; experiment: Cellular accumulation of [3H]-labeled drugs; type: cell-based, human
Protocol: (§4) Cellular Accumulation of [^3 H]-Daunorubicin, [^3 H]-Vinblastine, and [^3 H]Cyclosporine. lntracellular drug accumulation was quantified using radiolabeled drugs in a modified assay. The cells were seeded in 35×10 mm tissue culture dishes (Falcon, Becton Dickinson, Lincoln Park, N.J.), at 1×10^6 cells/dish. After overnight incubation, the growth medium was replaced with serum-free McCoy's 5A medium supplemented with 40 mM Hepes buffer (Sigma Chemicals, St. Louis, Mo.). Radiolabeled drugs were added at the appropriate concentration and incubated for 1 hr at 37° C. The medium was aspirated and cell pellet solubilized in 4% SDS at 65° C. for 1 hr. Ecolite™ scintillation cocktail (INC Biochemicals, Costa Mesa, Calif.) was added and radioactivity determined on an LS-9000 scintillation counter (Beckman Instruments, Brea, Calif.). All values were normalized to protein content.

[7] = tested on: DxP cells; experiment: Cellular accumulation of [3H]-labeled drugs; type: cell-based, human
Protocol: as §4

[8] = tested on: MES-SA cells; experiment: Growth inhibition (MTT) assay, with or without MDR modulators; type: cell-based, human; conditions: MES-SA cells
Protocol: as §1, §2, §3

[9] = tested on: Dx/PGS cells; experiment: MTT assay, DxP subclone; type: cell-based, human
Protocol: as §2, §3
(§5) Clonal Analysis of D×P cells. Subcloning of cells was performed by limiting dilution. Both resistant and revertant clones were analyzed for the MDR phenotype, drug accumulation, and rt-PCR or heteroduplex as described above.

[10] = tested on: Dx/PMS cells; experiment: MTT assay, DxP subclone; type: cell-based, human
Protocol: as §2, §3, §5

[11] = tested on: Dx/PJS cells; experiment: MTT assay, DxP subclone; type: cell-based, human
Protocol: as §2, §3, §5

[12] = tested on: Dx/PIS cells; experiment: MTT assay, DxP subclone; type: cell-based, human
Protocol: as §2, §3, §5

[13] = tested on: Dx/PFS cells; experiment: MTT assay, DxP subclone; type: cell-based, human
Protocol: as §2, §3, §5

[14] = tested on: Dx/PBS cells; experiment: MTT assay, DxP subclone; type: cell-based, human
Protocol: as §2, §3, §5

[15] = tested on: Dx/PDS cells; experiment: MTT assay, DxP subclone; type: cell-based, human
Protocol: as §2, §3, §5

[16] = tested on: Dx/PAS cells; experiment: MTT assay, DxP subclone; type: cell-based, human
Protocol: as §2, §3, §5

[17] = tested on: Dx/PCS cells; experiment: MTT assay, DxP subclone; type: cell-based, human
Protocol: as §2, §3, §5

[18] = tested on: Dx/PHS cells; experiment: MTT assay, DxP subclone; type: cell-based, human
Protocol: as §2, §3, §5

[19] = tested on: Dx/PES cells; experiment: MTT assay, DxP subclone; type: cell-based, human
Protocol: as §2, §3, §5

Sequence of P-gp of DxP cells (Phe335/336 deletion) (P08183 with tags, fused parts or gaps DEL335-335): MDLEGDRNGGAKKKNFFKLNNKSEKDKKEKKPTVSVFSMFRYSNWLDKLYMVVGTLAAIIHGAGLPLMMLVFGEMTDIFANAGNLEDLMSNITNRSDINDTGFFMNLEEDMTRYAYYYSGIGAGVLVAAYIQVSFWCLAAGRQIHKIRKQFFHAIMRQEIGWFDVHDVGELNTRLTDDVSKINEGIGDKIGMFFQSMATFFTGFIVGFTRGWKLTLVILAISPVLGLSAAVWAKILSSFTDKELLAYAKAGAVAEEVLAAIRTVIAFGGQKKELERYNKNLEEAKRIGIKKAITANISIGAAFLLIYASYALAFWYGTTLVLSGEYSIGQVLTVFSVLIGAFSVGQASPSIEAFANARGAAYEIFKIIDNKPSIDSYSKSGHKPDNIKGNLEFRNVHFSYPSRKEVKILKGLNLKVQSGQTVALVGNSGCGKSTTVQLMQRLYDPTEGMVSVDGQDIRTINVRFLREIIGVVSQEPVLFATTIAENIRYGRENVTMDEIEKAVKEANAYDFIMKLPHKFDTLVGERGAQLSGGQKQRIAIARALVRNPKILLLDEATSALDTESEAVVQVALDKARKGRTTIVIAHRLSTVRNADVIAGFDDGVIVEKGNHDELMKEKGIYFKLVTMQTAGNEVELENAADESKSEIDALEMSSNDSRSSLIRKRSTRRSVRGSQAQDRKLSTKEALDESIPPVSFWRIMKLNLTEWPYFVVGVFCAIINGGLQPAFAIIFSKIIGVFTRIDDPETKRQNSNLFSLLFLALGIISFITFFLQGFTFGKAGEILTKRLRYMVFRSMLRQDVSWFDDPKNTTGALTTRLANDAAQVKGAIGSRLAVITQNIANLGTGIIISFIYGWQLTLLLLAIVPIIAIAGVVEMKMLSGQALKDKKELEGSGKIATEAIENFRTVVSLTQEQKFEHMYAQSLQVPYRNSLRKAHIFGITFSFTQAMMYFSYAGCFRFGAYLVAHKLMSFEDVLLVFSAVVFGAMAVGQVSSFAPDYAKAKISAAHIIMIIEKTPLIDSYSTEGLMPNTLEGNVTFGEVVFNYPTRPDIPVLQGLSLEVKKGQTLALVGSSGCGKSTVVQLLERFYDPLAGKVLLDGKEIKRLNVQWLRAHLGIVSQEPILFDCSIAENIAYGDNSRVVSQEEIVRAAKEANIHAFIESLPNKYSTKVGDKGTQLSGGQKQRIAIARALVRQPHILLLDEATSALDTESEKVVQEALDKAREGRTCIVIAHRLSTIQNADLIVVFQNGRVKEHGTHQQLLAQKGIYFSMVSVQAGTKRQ
Sequence of P-gp of Dx5 cells (P08183 whole entry): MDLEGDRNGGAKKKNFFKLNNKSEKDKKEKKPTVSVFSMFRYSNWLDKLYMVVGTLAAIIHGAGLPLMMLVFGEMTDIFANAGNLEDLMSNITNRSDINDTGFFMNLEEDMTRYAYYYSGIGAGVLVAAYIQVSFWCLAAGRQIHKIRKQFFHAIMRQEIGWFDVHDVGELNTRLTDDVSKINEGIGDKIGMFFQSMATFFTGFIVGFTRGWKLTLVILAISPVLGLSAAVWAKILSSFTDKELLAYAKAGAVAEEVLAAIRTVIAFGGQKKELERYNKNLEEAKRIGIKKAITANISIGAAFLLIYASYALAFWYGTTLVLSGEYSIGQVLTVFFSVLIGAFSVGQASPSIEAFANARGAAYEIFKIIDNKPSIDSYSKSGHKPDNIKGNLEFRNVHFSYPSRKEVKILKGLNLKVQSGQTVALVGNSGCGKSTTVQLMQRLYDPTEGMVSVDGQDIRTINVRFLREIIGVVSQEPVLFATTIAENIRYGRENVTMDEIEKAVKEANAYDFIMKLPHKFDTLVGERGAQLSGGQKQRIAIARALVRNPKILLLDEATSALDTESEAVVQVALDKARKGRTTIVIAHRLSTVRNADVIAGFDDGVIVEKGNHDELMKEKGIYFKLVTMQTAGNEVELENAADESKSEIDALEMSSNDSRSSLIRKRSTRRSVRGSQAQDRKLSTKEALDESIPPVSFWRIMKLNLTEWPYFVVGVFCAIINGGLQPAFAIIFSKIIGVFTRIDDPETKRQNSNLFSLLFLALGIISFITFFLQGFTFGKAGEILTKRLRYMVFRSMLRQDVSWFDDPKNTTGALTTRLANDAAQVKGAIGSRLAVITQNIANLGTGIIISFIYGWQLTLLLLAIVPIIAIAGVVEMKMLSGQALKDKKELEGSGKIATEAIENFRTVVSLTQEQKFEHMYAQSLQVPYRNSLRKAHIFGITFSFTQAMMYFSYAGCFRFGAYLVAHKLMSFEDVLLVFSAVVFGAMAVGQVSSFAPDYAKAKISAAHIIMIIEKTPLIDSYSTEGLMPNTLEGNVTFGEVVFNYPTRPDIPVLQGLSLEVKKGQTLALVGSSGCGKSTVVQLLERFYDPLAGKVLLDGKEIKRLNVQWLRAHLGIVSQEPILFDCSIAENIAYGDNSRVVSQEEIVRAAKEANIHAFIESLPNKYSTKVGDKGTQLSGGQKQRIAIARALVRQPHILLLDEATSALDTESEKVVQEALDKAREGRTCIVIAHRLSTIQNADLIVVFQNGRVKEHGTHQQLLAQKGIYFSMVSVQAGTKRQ

Q: How did the “Cellular accumulation of Rh-123” value [1] turn out when Rhodamine-123 [Rh-123] was run?
A: Its value is “markedly decreased”.

Q: What does the source list for C/C=C/C[C@@H](C)C(=O)[C@H]1C(=O)N[C@@H](C(C)C)C(=O)N(C)CC(=O)N(C)[C@@H](CC(C)C)C(=O)N[C@@H](C(C)C)C(=O)N(C)[C@@H](CC(C)C)C(=O)N[C@@H](C)C(=O)N[C@H](C)C(=O)N(C)[C@@H](CC(C)C)C(=O)N(C)[C@@H](CC(C)C)C(=O)N(C)[C@@H](C(C)C)C(=O)N1C [PSC 833]?
A: Effect of modulator on Rh-123 accumulation ([1]; PSC 833 2 μM): completely restored; Modulation of MDR by the modulator (in words) ([2]; 2 μM, sensitivity to DOX, vinblastine, paclitaxel, vincristine and colchicine relative to MES-SA): completely restored the sensitivity; Displacement of [3H]-azidopine photoaffinity labeling [3]: resistant to the displacement; Effect on [125I]-iodoarylazidoprazosin photoaffinity labeling of P-gp ([3]; 100 μM): abolished detectable P-gp labeling; Effect on [125I]-iodoarylazidoprazosin photoaffinity labeling of P-gp ([3]; 0.1 and 10 μM): enhanced photoaffinity binding; Resistance of cells to the modulating effects of the modulator (in words) ([4]; DxP cells, PSC 833 2 μM, cyclosporin 3 μM, verapamil 6 μM): almost completely resistant; Effect on [125I]-iodoarylazidoprazosin photoaffinity labeling of P-gp ([5]; 100 μM): abolished detectable P-gp labeling; Effect on [125I]-iodoarylazidoprazosin photoaffinity labeling of P-gp ([5]; 0.1 and 10 μM): effectively competed; Modulation of decreased drug accumulation by modulator [6]: complete modulation; Modulation of decreased [3H]-cyclosporin accumulation by modulator ([6]; to levels of DxP and MES-SA cells): completely modulated; Modulation of decreased drug accumulation by modulator ([7]; DxP cells): not modulated

Q: For [^3 H]-vinblastine, which “Intracellular accumulation in DxP relative to Dx5 cells” value ([7]; [3H]-labeled drug, 1 hr) is on record?
A: Its value is “approximately 3 fold”.

Q: COc1cccc2c1C(=O)c1c(O)c3c(c(O)c1C2=O)C[C@@](O)(C(=O)CO)C[C@@H]3O[C@H]1C[C@H](N)[C@H](O)[C@H](C)O1 [Doxorubicin] was tested. Which IC50 ([8]; Homo sapiens, 72 hr MTT, read-out: IC50 of drug-sensitive MES-SA cells (values in parenthesis)) did it give?
A: Its IC50 is 40 nM.

Q: What about the Fold resistance ([8]; +2 μM PSC 833) of the same molecule?
A: The Fold resistance was 1 fold.

Q: And the Fold resistance ([8]; +3 μM cyclosporin A)?
A: The Fold resistance was 0.5 fold.

Q: What about the Fold resistance ([8]; +6 μM Verapamil) of the same molecule?
A: The Fold resistance was 0.5 fold.

Q: What about the “Fold resistance” value ([8]; no modulator, 72 hr MTT) of the same molecule?
A: Its value is 1 fold.

Q: And the Fold resistance ([2]; +2 μM PSC 833)?
A: Its Fold resistance is 1 fold.

Q: And the Fold resistance ([2]; +3 μM cyclosporin A)?
A: Its Fold resistance is 2 fold.

Q: And the Fold resistance ([2]; +6 μM Verapamil)?
A: The Fold resistance was 4 fold.

Q: What about the “Fold resistance” value ([2]; no modulator, relative to MES-SA) of the same molecule?
A: Its value is 80 fold.

Q: And the “Level of resistance of DxP cells to the cytotoxin compared with parental Dx5 (in words)” value ([4]; DxP cells)?
A: Its value is “similar”.

Q: And the Fold resistance ([4]; DxP cells, +2 μM PSC 833)?
A: The Fold resistance was 53 fold.

Q: And the Fold resistance ([4]; DxP cells, +3 μM cyclosporin A)?
A: Its Fold resistance is 30 fold.

Q: And the Fold resistance ([4]; DxP cells, +6 μM Verapamil)?
A: Its Fold resistance is 18 fold.

Q: And the “Fold resistance” value ([4]; DxP cells, no modulator, relative to MES-SA)?
A: Its value is 77 fold.

Q: And the “Dx5/DxP, fold of resistance difference in DxP cells compared with parental Dx5 cells” value ([4]; DxP vs Dx5)?
A: The value was 1 fold.

Q: And the “fold resistance relative to MES-SA” value ([9]; + PSC)?
A: The value was 7 fold.

Q: What about the “fold resistance relative to MES-SA” value ([9]; no modulator) of the same molecule?
A: The value was 7 fold.

Q: And the “fold resistance relative to MES-SA” value ([10]; + PSC)?
A: Its value is 50 fold.

Q: What about the “fold resistance relative to MES-SA” value ([10]; no modulator) of the same molecule?
A: The value was 100 fold.

Q: And the “fold resistance relative to MES-SA” value ([11]; + PSC)?
A: The value was 75 fold.

Q: And the “fold resistance relative to MES-SA” value ([11]; no modulator)?
A: Its value is 175 fold.

Q: And the “fold resistance relative to MES-SA” value ([12]; + PSC)?
A: Its value is 3 fold.

Q: What about the “fold resistance relative to MES-SA” value ([12]; no modulator) of the same molecule?
A: The value was 13 fold.

Q: What about the “fold resistance relative to MES-SA” value ([13]; + PSC) of the same molecule?
A: Its value is 75 fold.

Q: And the “fold resistance relative to MES-SA” value ([13]; no modulator)?
A: Its value is 150 fold.

Q: And the “fold resistance relative to MES-SA” value ([14]; + PSC)?
A: The value was 13 fold.

Q: And the “fold resistance relative to MES-SA” value ([14]; no modulator)?
A: Its value is 67 fold.

Q: And the “fold resistance relative to MES-SA” value ([15]; + PSC)?
A: Its value is 100 fold.

Q: What about the “fold resistance relative to MES-SA” value ([15]; no modulator) of the same molecule?
A: Its value is 150 fold.

Q: What about the “fold resistance relative to MES-SA” value ([16]; + PSC) of the same molecule?
A: Its value is 51 fold.

Q: What about the “fold resistance relative to MES-SA” value ([16]; no modulator) of the same molecule?
A: The value was 163 fold.

Q: And the “fold resistance relative to MES-SA” value ([17]; + PSC)?
A: Its value is 23 fold.

Q: And the “fold resistance relative to MES-SA” value ([17]; no modulator)?
A: Its value is 50 fold.

Q: And the “fold resistance relative to MES-SA” value ([18]; + PSC)?
A: The value was 37 fold.

Q: And the “fold resistance relative to MES-SA” value ([18]; no modulator)?
A: The value was 83 fold.

Q: What about the “fold resistance relative to MES-SA” value ([19]; + PSC) of the same molecule?
A: The value was 100 fold.

Q: What about the “fold resistance relative to MES-SA” value ([19]; no modulator) of the same molecule?
A: Its value is 96 fold.
